Measurements published in patent publication US9527817B2, “Compounds for treating peripheral; neuropathies and other neurodegenerative; disorders” (THE JOHNS HOPKINS UNIVERSITY, priority 2011, dated 2016).
Entries after “also recorded” stand apart in the source; their conditions may differ.

Legend:
[1] = tested on: AJ mice treated with PTX; assay: Mouse model of chemotherapy induced peripheral neuropathy (paclitaxel); format: in vivo; conditions: various doses daily, PTX 25 mg/kg i.v. days 1, 3, 5
Protocol: In this model, animals develop thermal hypoalgesia and reduction in sensory nerve action potential (SNAP) amplitudes. AJ mice were given three doses of PTX at 25 mg/kg intravenously every other day (days 1, 3 and 5). Vehicle control or EQ was administered daily starting on day 1 and tissues were harvested at day 19. Immediately before tissue harvest, sensory nerve conduction studies and thermal sensation measurements were carried out.

[2] = tested on: four different human breast cancer cell lines: MCE-7, SUM-159, TATD, and MDA-MB-231; assay: Antineoplastic activity of paclitaxel with or without EQ (cellular ATP levels); format: cell-based; conditions: paclitaxel co-administered with varying concentrations of EQ
Protocol: To determine the effect of EQ on the antineoplastic activity of paclitaxel, the conditions for culturing four cancer cell lines and measuring the ATP levels were optimized for the 96-well plate format. Briefly, 1500 cells/well in media (MDA-MB-231 in DMEM with 10% FBS; MCF-7 in DMEM with 10% FBS; TATD in RPMI with 10% FBS; SUM159 in DMEM/F-12 (250 mL/250 mL) with 5% FBS, 500 μL of 10 mg/mL insulin and 25 μL of 10 mg/mL hydrocordisol) were plated in 96-well plates for 24 h. Constant concentrations of paclitaxel (PTX) with or without EQ were added to the wells for another 24 h. Cellular ATP levels were measured using ViaLight Plus kit (Cambrex) according to the manufacturer's protocol on a LMaxI microplate reader (Molecular Devices, Palo Alto, Calif.).

[3] = tested on: primary DRG neurons; assay: Axon length assay, paclitaxel-induced distal axonal degeneration; format: cell-based, rat; conditions: 24 hours exposure, βIII-tubulin staining
Protocol: Measurements of axonal lengths to determine axonal degeneration induced by EQ and representative derivatives were done as described in Keswani et al., “FK506 is neuroprotective in a model of antiretroviral toxic neuropathy,” Annals of Neurology, 53(1):57-64 (2003). Initially, dorsal root ganglia (DRG) cells were harvested from embryonic rats (14.5 days old) according to standard protocol, then cells were plated onto collagen-coated glass coverslips and allowed to extend axons for 24 h in media (Neurobasal medium, 50 mM PS, 0.2% fetal bovine serum (FBS), 0.5 mM glutamine, 1×B-27 supplement, 0.2% glucose, 10 ng/mL glial cell line-derived neurotrophic factor (GDNF)). Paclitaxel (PTX), EQ and representative derivatives, or vehicle controls were added to the wells for another 24 h incubation. DRG cells were fixed with 4% paraformaldehyde and stained with anti-βIII-tubulin antibody to delineate the axons. Axon lengths were measured in multiple fields using a random sampling method as described by Keswani et al., 2003. All experiments were performed in triplicates and repeated twice. Statistical analysis was done using the ANOVA procedure. Correction for multiple comparisons was completed with Fisher's protected least significant difference. Bars marked with * indicate statistically significant differences with p<0.05.

[4] = molecular target: recombinant hsp90; assay: Fluorescence quenching binding assay; conditions: 25° C.
Protocol: For the fluorescence-quenching assay, fluorescence intensity was recorded on a SpectraMax Gemini XS plate reader (Molecular Devices, Palo Alto, Calif.) using a 96-well black PCR plate (Thermo Scientific, Logan, Utah). Compounds (10 mM in ethanol) were diluted with 50 mM Tris-HCl (pH 7.4) to obtain a solution with a 15 μM final concentration. Aliquots of proteins were added to the compounds solution and mixed with micro pipette by gently pulling in and drawing out the solution. Fluorescence intensities (λex=350 nm, λem=450 nm) were measured at 25° C. Equilibrium dissociation constant KD was obtained by fitting the data using the nonlinear least squares option of the GraphPad Prism software. All experiments were completed in duplicates and repeated at least three times.
To determine the binding efficiency, fluorescence quenching experiments were carried out with recombinant hsp90.

[5] = tested on: hsp90; assay: Neuroprotection by EQ with hsp90 siRNA or control siRNA; format: cell-based, rat
Protocol: For the RNA inhibition experiments, transfection with siRNA was carried out according to the manufacturer's protocol. 50B11 cells were plated in 6-well plates in culture medium (Neurobasal medium, 10% fetal bovine serum (FBS), 0.5 mM glutamine, 1×B-27 supplement, 0.2% glucose) without antibiotics overnight and allowed to reach 50-70% confluence. On the second day, 1 μL siRNA oligomer (Ambion, Life Technologies, Carlsbad, Calif.) was diluted in 250 μL Opti-MEM media, and 5 μL Lipofectation 2000 (Invitrogen, Life Technologies, Carlsbad, Calif.) in another 250 μL Opti-MEM media. After 5 minutes incubation, dilutions were combined and incubated for 20 minutes at RT and then the oligomer-Lipofectation 2000 complexes were added to each well. […]
The protein isolation, protein electrophoresis (SDS-PAGE) and Western blotting assays were performed according to the instructions of the manufacturer. […] The measurements of total protein concentrations were performed using BCA kits (Thermo Scientific, Logan, Utah) on SpectraMax 340PC microplate reader (Molecular Devices, Palo Alto, Calif.). Samples (30 μg of total protein per well) and standards (SeeBlue® Plus2 Pre-Stained Standard, Invitrogen, Life Technologies, Carlsbad, Calif.) were loaded onto the wells (Ready Gel® 4-15% Tris-HCl, 50 μL^−1 gel; Bio-Rad, Hercules, Calif.). […]

[6] = tested on: diabetic rats; assay: Diabetic rats: distal axonal degeneration and autonomic testing; format: in vivo, rat; conditions: data not shown
[7] = tested on: hsp90; assay: Binding efficacy of paclitaxel to hsp90 in the presence of EQ
Protocol: Further, it was known that paclitaxel binds to hsp90. To determine if EQ was binding to the same site and displacing paclitaxel, the binding efficacy of paclitaxel to hsp90 was measured. […] It is possible that EQ binds to hsp90 and modifies its chaperone activity for an important client protein.

[8] = tested on: hsp90; assay: Colorimetric (malachite green) determination of hsp90 ATPase activity; format: biochemical; conditions: wide dose range of EQ
Protocol: The assay procedure for the colorimetric determination of ATPase activity was based on Rowlands et al., “High-throughput Screening Assay for Inhibitors of Heat-Shock Protein 90 ATPase Activity,” Analytical Biochemistry 327:176-183 (2004). The malachite green reagent was prepared on the day of use. It contained malachite green (Sigma Aldrich, St. Louis, Mo.; 0.0812%, w/v), polyvinyl alcohol (Sigma Aldrich, St. Louis, Mo.; 2.32%, w/v), ammonium molybdate (Sigma Aldrich, St. Louis, Mo.; 5.72%, w/v, in 6 M HCl), and UltraPure Distilled Water (Invitrogen, Life Technologies, Carlsbad, Calif.), mixed in the ratio 2:1:1:2. The reagent was initially dark brown, and then it changed to a golden yellow after 2 h at room temperature, which meant it was ready for use. The assay buffer (pH 7.4) was 100 mM Tris-HCl, 20 mM KCl, 6 mM MgCl2.
The test compounds were dissolved in 100% (v/v) DMSO to give a stock concentration of 10 mM. This solution was diluted to six appropriate concentrations with test compounds in the assay buffer. 5 μL of each compound solution was added to each well of the Perkin-Elmer 96-well assay plate. The first two rows of the 96-well plate contained DMSO only, representing the control and background values, respectively. […] The absorbance at 620 nm was measured using the SpectraMAX 340PC microplate reader (Molecular Devices, Palo Alto, Calif.). […]

[9] = tested on: mouse model of HIV-associated sensory neuropathy; assay: Mouse model of HIV-associated sensory neuropathy; format: in vivo; conditions: 75 μg/kg/day; data not shown

With Ethoxyquin [EQ] the “sensory nerve action potential (SNAP) amplitude” value ([1]; tail sensory nerves) was “prevented this reduction in SNAP amplitude”, the “distal axonal degeneration and intraepidermal nerve fiber density in the footpads” value [1] was “loss of distal axons was prevented” and the “thermal hypoalgesia induced by PTX” value [1] was “prevented”. For the same substance, the “effect on paclitaxel's reduction of cell viability (relative ATP levels)” value [2] was “did not affect the ability of paclitaxel to reduce cell viability; also recorded: no significant change in reduced cell viability was observed”, the “distal axonal degeneration induced by PTX (axon lengths)” value [3] was “partially prevented distal axonal degeneration induced by PTX” and the Kd [4] was 280 nM. The “neuroprotection against paclitaxel with hsp90 siRNA” value ([5]; PTX+100 nM EQ (+) siRNA, hsp90 downregulated) was “the neuroprotection by EQ disappeared; also recorded: reverses neuroprotection by EQ”, the “neuroprotection against paclitaxel without hsp90 siRNA” value ([5]; PTX+100 nM EQ (−) siRNA) was “Neuroprotection by EQ can be seen” and the distal axonal degeneration ([6]; 75 μg/kg/day) was “reverses distal axonal degeneration”. The “erectile dysfunction induced by diabetes (autonomic testing)” value [6] was “prevents erectile dysfunction induced by diabetes”, the “effect on binding of paclitaxel to hsp90” value [7] was “did not affect the binding of paclitaxel to hsp90; also recorded: does not alter the binding efficacy of paclitaxel to hsp90” and the “effect on ATPase activity of hsp90” value [8] was “does not affect the ATPase activity of hsp90; also recorded: does not alter the ATPase activity of hsp90”. For the same substance, the distal axonal degeneration [9] was “prevents distal axonal degeneration”.
